In PMC5931191, “Reversible stapling of unprotected peptides via chemoselective methionine bis-alkylation/dealkylation” (Chemical Science, 2018):

Experiments:
[1] = Met bis-alkylation (bis-sulfonium staple) of one unprotected peptide with different dihalide linkers (1.2 equiv), 1% HCOOH (pH ~3), 24 h; conditions: the molecule shown is the open-chain precursor, MeCN/H2O 30:70 (SI: 1:3) + 1% HCOOH, small amount of DMF, 10.0 mM, 25.0 °C
[2] = Met bis-alkylation (bis-sulfonium staple) with linker c, 1,4-bis(bromomethyl)benzene (1.2 equiv), 1% HCOOH (pH ~3), 24 h; conditions: the molecule shown is the open-chain precursor, MeCN/H2O 30:70 (SI: 1:3) + 1% HCOOH, small amount of DMF, 10.0 mM, 25.0 °C
[3] = Met bis-alkylation (bis-sulfonium staple) with linker a, 1,3-bis(bromomethyl)benzene (1.2 equiv), 1% HCOOH (pH ~3), 24 h; conditions: the molecule shown is the open-chain precursor, MeCN/H2O 30:70 (SI: 1:3) + 1% HCOOH, small amount of DMF, 10.0 mM, 25.0 °C
[4] = Dealkylation of cyclic peptides with 2-mercaptopyridine (regeneration of linear peptide); format: physicochemical; conditions: chemical stability under reductive conditions; 2-mercaptopyridine (10 equiv., 10 mM) in PBS pH 7.4, 37 °C, different time points, HPLC / LC-MS; Fig. 3A, B
Method: in linear gradient mixtures.
1. Preparation of alkylated sulfonium peptides[1]
The alkylated reagent (1.2 equiv)
Then the solution was purified by reversed […]
peptide can be gradually regenerated to the linear peptide.
To 100 µL of each solution 1 µL […]
linear gradient from 10% to 70% acetonitrile over 15min. […]
quantified by LC/MS-based peak detection at 254nm.
4. Flow Cytometry Analysis
T47D cells were seeded in
37°C), washed with PBS, and resuspended in PBS. […]
cytometer (Becton Dickinson) and CellQuest Pro (or CFlow plus).

HeLa cells = experiment: Flow cytometry cellular uptake in HeLa cells; format: cell-based; conditions: 10% fetal bovine serum, 5, 10, 20 µM, Fig. S5

CSCC[C@H](NC(=O)[C@H](CC(=O)O)NC(=O)CNC(=O)[C@H](CCCNC(=N)N)NC(=O)[C@H](CC[S+](C)Cc1ccc(-c2ccc(CBr)cc2)cc1)NC(=O)[C@H](Cc1c[nH]c2ccccc12)NC(C)=O)C(N)=O (some centres unmarked) showed a ring closure, conversion by HPLC ([1]; 29-membered ring) of 60%.
Compound CSCC[C@H](NC(=O)[C@H](CC(=O)O)NC(=O)CNC(=O)[C@H](CCCNC(=N)N)NC(=O)[C@H](CC[S+](C)Cc1nc2ccccc2nc1CBr)NC(=O)[C@H](Cc1c[nH]c2ccccc12)NC(C)=O)C(N)=O (some centres unmarked) has a ring closure, conversion by HPLC ([1]; 23-membered ring) of 53%.
CSCC[C@H](NC(=O)[C@H](CC(=O)O)NC(=O)CNC(=O)[C@H](CCCNC(=N)N)NC(=O)[C@H](CC(=O)O)NC(=O)CNC(=O)[C@H](CCCNC(=N)N)NC(=O)[C@H](CC[S+](C)Cc1ccc(CBr)cc1)NC(=O)[C@H](Cc1c[nH]c2ccccc12)NC(C)=O)C(N)=O (stereo partly drawn) [Ac-Trp-Met-Arg-Gly-Asp-Arg-Gly-Asp-Met-NH2] gave a ring closure, conversion by HPLC ([2]; 34-membered ring) of 54%.
With CSCC[C@H](NC(=O)[C@H](CC(=O)O)NC(=O)CNC(=O)[C@H](CCCNC(=N)N)NC(=O)[C@H](CC(=O)O)NC(=O)CNC(=O)[C@H](CCCNC(=N)N)NC(=O)[C@H](CC[S+](C)Cc1cccc(CBr)c1)NC(=O)[C@H](Cc1c[nH]c2ccccc12)NC(C)=O)C(N)=O (stereo partly drawn) [Ac-Trp-Met-Arg-Gly-Asp-Arg-Gly-Asp-Met-NH2] the ring closure, conversion by HPLC ([3]; 33-membered ring) was 85%.
Compound CSCC[C@H](NC(=O)[C@H](CC(=O)O)NC(=O)CNC(=O)[C@H](CCCNC(=N)N)NC(=O)[C@H](CC[S+](C)Cc1ccccc1CBr)NC(=O)[C@H](Cc1c[nH]c2ccccc12)NC(C)=O)C(N)=O (stereo partly drawn) [Ac-Trp-Met-Arg-Gly-Asp-Met-NH2 + 1,2-bis(bromomethyl)benzene] has a ring closure, conversion by HPLC ([1]; 23-membered ring) of 58%.
In the case of CSCC[C@H](NC(=O)[C@H](CC(=O)O)NC(=O)CNC(=O)[C@H](CCCNC(=N)N)NC(=O)[C@H](CC[S+](C)Cc1cccc(CBr)c1)NC(=O)[C@H](Cc1c[nH]c2ccccc12)NC(C)=O)C(N)=O (stereo partly drawn) [Ac-Trp-Met-Arg-Gly-Asp-Met-NH2 + 1,3-bis(bromomethyl)benzene], the ring closure, conversion by HPLC ([1]; 24-membered ring) is reported as 88%.
CSCC[C@H](NC(=O)[C@H](CC(=O)O)NC(=O)CNC(=O)[C@H](CCCNC(=N)N)NC(=O)[C@H](CC[S+](C)Cc1ccc(CBr)cc1)NC(=O)[C@H](Cc1c[nH]c2ccccc12)NC(C)=O)C(N)=O (stereo partly drawn) [Ac-Trp-Met-Arg-Gly-Asp-Met-NH2 + 1,4-bis(bromomethyl)benzene] gave a ring closure, conversion by HPLC ([1]; 25-membered ring) of 49%.
For CSCC[C@H](NC(=O)[C@H](CC(=O)O)NC(=O)CNC(=O)[C@H](CCCNC(=N)N)NC(=O)[C@H](CC[S+](C)CC(=O)C(=O)CBr)NC(=O)[C@H](Cc1c[nH]c2ccccc12)NC(C)=O)C(N)=O (stereo partly drawn) [Ac-Trp-Met-Arg-Gly-Asp-Met-NH2 + 1,4-dibromobutane-2,3-dione], the ring closure, conversion by HPLC ([1]; 23-membered ring) was 64%.
In the case of CSCC[C@H](NC(=O)[C@H](CC(=O)O)NC(=O)CNC(=O)[C@H](CCCNC(=N)N)NC(=O)[C@H](CC[S+](C)CCCCBr)NC(=O)[C@H](Cc1c[nH]c2ccccc12)NC(C)=O)C(N)=O (stereo partly drawn) [Ac-Trp-Met-Arg-Gly-Asp-Met-NH2 + 1,4-dibromobutane], the ring closure, conversion by HPLC ([1]; 23-membered ring) is reported as 0%.
Work on CSCC[C@H](NC(=O)[C@H](CC(=O)O)NC(=O)CNC(=O)[C@H](CCCNC(=N)N)NC(=O)[C@H](CC[S+](C)CCCCI)NC(=O)[C@H](Cc1c[nH]c2ccccc12)NC(C)=O)C(N)=O (stereo partly drawn) [Ac-Trp-Met-Arg-Gly-Asp-Met-NH2 + 1,4-diiodobutane] yielded a ring closure, conversion by HPLC ([1]; 23-membered ring) of 0%.
CSCC[C@H](NC(=O)[C@H](CC(=O)O)NC(=O)CNC(=O)[C@H](CCCNC(=N)N)NC(=O)[C@H](CC[S+](C)C/C=C/CBr)NC(=O)[C@H](Cc1c[nH]c2ccccc12)NC(C)=O)C(N)=O (stereo partly drawn) [Ac-Trp-Met-Arg-Gly-Asp-Met-NH2 + (E)-1,4-dibromobut-2-ene] showed a ring closure, conversion by HPLC ([1]; 23-membered ring) of 93%.
With CSCC[C@H](NC(=O)[C@H](CC(C)C)NC(=O)[C@H](CS)NC(=O)[C@H](CC[S+](C)Cc1ccc(CBr)cc1)NC(=O)[C@H](Cc1c[nH]c2ccccc12)NC(C)=O)C(=O)N[C@@H](C)C(N)=O (stereo partly drawn) [Ac-Trp-Met-Cys-Leu-Met-Ala-NH2] the ring closure, conversion by HPLC ([2]; 22-membered ring) was > 95%.
For CSCC[C@H](NC(=O)[C@H](CC(C)C)NC(=O)[C@H](CS)NC(=O)[C@H](CC[S+](C)Cc1cccc(CBr)c1)NC(=O)[C@H](Cc1c[nH]c2ccccc12)NC(C)=O)C(=O)N[C@@H](C)C(N)=O (stereo partly drawn) [Ac-Trp-Met-Cys-Leu-Met-Ala-NH2], the ring closure, conversion by HPLC ([3]; 21-membered ring) was > 95%.
Compound CSCC[C@H](NC(=O)[C@H](CC(=O)O)NC(=O)[C@@H](NC(=O)[C@H](Cc1c[nH]cn1)NC(=O)[C@H](CC[S+](C)Cc1ccc(CBr)cc1)NC(=O)[C@H](Cc1c[nH]c2ccccc12)NC(C)=O)C(C)C)C(=O)N[C@@H](C)C(N)=O (stereo partly drawn) [Ac-Trp-Met-His-Val-Asp-Met-Ala-NH2] has a ring closure, conversion by HPLC ([2]; 25-membered ring) of 85%.
With CSCC[C@H](NC(=O)[C@H](CC(=O)O)NC(=O)[C@@H](NC(=O)[C@H](Cc1c[nH]cn1)NC(=O)[C@H](CC[S+](C)Cc1cccc(CBr)c1)NC(=O)[C@H](Cc1c[nH]c2ccccc12)NC(C)=O)C(C)C)C(=O)N[C@@H](C)C(N)=O (stereo partly drawn) [Ac-Trp-Met-His-Val-Asp-Met-Ala-NH2] the ring closure, conversion by HPLC ([3]; 24-membered ring) was 73%.
With CSCC[C@H](NC(=O)[C@H](CCC(=O)O)NC(=O)[C@H](CCCCN)NC(=O)[C@H](CC[S+](C)Cc1ccc(CBr)cc1)NC(=O)[C@H](Cc1c[nH]c2ccccc12)NC(C)=O)C(=O)N[C@@H](C)C(N)=O (stereo partly drawn) [Ac-Trp-Met-Lys-Glu-Met-Ala-NH2] the ring closure, conversion by HPLC ([2]; 22-membered ring) was 73%.
CSCC[C@H](NC(=O)[C@H](CCC(=O)O)NC(=O)[C@H](CCCCN)NC(=O)[C@H](CC[S+](C)Cc1cccc(CBr)c1)NC(=O)[C@H](Cc1c[nH]c2ccccc12)NC(C)=O)C(=O)N[C@@H](C)C(N)=O (stereo partly drawn) [Ac-Trp-Met-Lys-Glu-Met-Ala-NH2] showed a ring closure, conversion by HPLC ([3]; 21-membered ring) of 85%.
CC[C@H](C)[C@H](NC(=O)[C@H](CCCCN)NC(=O)[C@H](CC[S+](C)Cc1ccc(CBr)cc1)NC(=O)[C@H](Cc1c[nH]c2ccccc12)NC(C)=O)C(=O)N[C@@H](CCC(=O)O)C(=O)N[C@@H](CCSC)C(=O)N[C@@H](C)C(N)=O (stereo partly drawn) [Ac-Trp-Met-Lys-Ile-Glu-Met-Ala-NH2] gave a ring closure, conversion by HPLC ([2]; 25-membered ring) of 83%.
In the case of CC[C@H](C)[C@H](NC(=O)[C@H](CCCCN)NC(=O)[C@H](CC[S+](C)Cc1cccc(CBr)c1)NC(=O)[C@H](Cc1c[nH]c2ccccc12)NC(C)=O)C(=O)N[C@@H](CCC(=O)O)C(=O)N[C@@H](CCSC)C(=O)N[C@@H](C)C(N)=O (stereo partly drawn) [Ac-Trp-Met-Lys-Ile-Glu-Met-Ala-NH2], the ring closure, conversion by HPLC ([3]; 24-membered ring) is reported as 77%.
Compound CSCC[C@H](NC(=O)[C@H](Cc1c[nH]cn1)NC(=O)[C@@H]1CCCN1C(=O)[C@H](CC[S+](C)Cc1ccc(CBr)cc1)NC(=O)[C@H](Cc1c[nH]c2ccccc12)NC(C)=O)C(=O)N[C@@H](C)C(N)=O (stereo partly drawn) [Ac-Trp-Met-Pro-His-Met-Ala-NH2] has a ring closure, conversion by HPLC ([2]; 22-membered ring) of 74%.
CSCC[C@H](NC(=O)[C@H](Cc1c[nH]cn1)NC(=O)[C@@H]1CCCN1C(=O)[C@H](CC[S+](C)Cc1cccc(CBr)c1)NC(=O)[C@H](Cc1c[nH]c2ccccc12)NC(C)=O)C(=O)N[C@@H](C)C(N)=O (stereo partly drawn) [Ac-Trp-Met-Pro-His-Met-Ala-NH2] showed a ring closure, conversion by HPLC ([3]; 21-membered ring) of 84%.
CSCC[C@H](NC(=O)CNC(=O)[C@H](Cc1ccc(O)cc1)NC(=O)[C@@H]1CCCN1C(=O)[C@H](CC[S+](C)Cc1ccc(CBr)cc1)NC(=O)[C@H](Cc1c[nH]c2ccccc12)NC(C)=O)C(=O)N[C@@H](C)C(N)=O (stereo partly drawn) [Ac-Trp-Met-Pro-Tyr-Gly-Met-Ala-NH2] gave a ring closure, conversion by HPLC ([2]; 25-membered ring) of 81%.
For CSCC[C@H](NC(=O)CNC(=O)[C@H](Cc1ccc(O)cc1)NC(=O)[C@@H]1CCCN1C(=O)[C@H](CC[S+](C)Cc1cccc(CBr)c1)NC(=O)[C@H](Cc1c[nH]c2ccccc12)NC(C)=O)C(=O)N[C@@H](C)C(N)=O (stereo partly drawn) [Ac-Trp-Met-Pro-Tyr-Gly-Met-Ala-NH2], the ring closure, conversion by HPLC ([3]; 24-membered ring) was 70%.
With “Ac-W-(cyclo-c)-MRGDM-NH2 (sidechain bridge or staple) [1c, peptide 1 Met bis-alkylated with linker c]” the “regeneration of the parental linear peptide 1 (dealkylation)” value [4] was “time-dependent regeneration of the parental peptide 1”.
In the case of “FITC-βA-(cyclo-a)-MRRRM-NH2 (sidechain bridge or staple) [11a, peptide 11 cyclized using linker a]”, the “cellular uptake efficiency (flow cytometry) in the presence of serum” value (HeLa cells) is reported as “same tendency as in the absence of serum”.
With “FITC-βA-(cyclo-i)-MRRRM-NH2 (sidechain bridge or staple) [11i, peptide 11 cyclized using linker i]” the “cellular uptake efficiency (flow cytometry) in the presence of serum” value (HeLa cells) was “same tendency as in the absence of serum”.
